Assay results from patent US6407288B1, “Naphthylsalicylanilides as antimicrobial and antiinflammatory agents” (The Research Foundation of State University of New York, priority 2000, dated 2002).
Blank lines part the entries; values can stand above or below the molecule they belong to.

Columns and labels:
[1] = system: A. viscosus; test: MIC microdilution, gram positive; format: cell-based, Actinomyces viscosus; details: Table 2, Gram Positive
Protocol: (§1) The MIC's for the compounds were determined by a modified microdilution tube dilution method described in “Methods for Dilution Antimicrobial Susceptibility Tests for Bacteria that Grow Aerobically” (National Committee for Clinical Laboratory Standards Approved Standards, 1997, NCCLS document M7-A4). In general the modifications were made because of the unique growth requirements for the fastidious oral organisms and for those bacteria that require anaerobic conditions. Reference is also made to “Methods for Antimicrobial Susceptibility of Anaerobic Bacteria” (National Committee for Clinical Laboratory Standards Approved Standards, 1997, NCCLS document M11-A4). Briefly, the methods were as follows. Cultures were grown for 18-24hrs (aerobic bacteria) or 48-72 hrs (anaerobic bacteria) in the appropriate medium. For aerobic bacteria full strength brain heart infusion medium (BHI, Difco) was used. For anaerobic bacteria, half strength BHI (18.5 g/L) was supplemented by adding yeast extract (10 g/L), hemin (0.29 mL of a stock solution containing 0.1 g/200 mL dH2O) and menadione (15 mL of a stock solution containing 0.15 mL in 30 mL 95% EtOH) was used. Initial cultures were diluted to approximately 1×10^8 CFU/mL for use as an inoculum. Each assay received 10 μL of the inoculum. The drugs were prepared from a stock solution contained in dimethyl sulfoxide (DMSO) and diluted into the culture medium. Final concentrations of the drugs ranged from 50 to 0.05 μg/assay. The tests were run in duplicate and were incubated appropriately with regard to oxygen requirements for 24 to 48 hrs as required. Anaerobic incubation was an atmosphere of 5% CO2, 10% H2, with the balance N2. The lowest concentration of an antimicrobial agent at which no visible growth is noted was referred to as the MIC.

[2] = system: Pg 53977; test: MIC microdilution, gram negative; format: cell-based, Porphyromonas gingivalis
Protocol: (§2) The MIC's for the compounds were determined by a modified microdilution tube dilution method described in “Methods for Dilution Antimicrobial Susceptibility Tests for Bacteria that Grow Aerobically” (National Committee for Clinical Laboratory Standards Approved Standards, 1997, NCCLS document M7-A4). In general the modifications were made because of the unique growth requirements for the fastidious oral organisms and for those bacteria that require anaerobic conditions. Reference is also made to “Methods for Antimicrobial Susceptibility of Anaerobic Bacteria” (National Committee for Clinical Laboratory Standards Approved Standards, 1997, NCCLS document M11-A4). Briefly, the methods were as follows. Cultures were grown for 18-24hrs (aerobic bacteria) or 48-72 hrs (anaerobic bacteria) in the appropriate medium. For aerobic bacteria full strength brain heart infusion medium (BHI, Difco) was used. For anaerobic bacteria, half strength BHI (18.5 g/L) was supplemented by adding yeast extract (10 g/L), hemin (0.29 mL of a stock solution containing 0.1 g/200 mL dH2O) and menadione (15 mL of a stock solution containing 0.15 mL in 30 mL 95% EtOH) was used. Initial cultures were diluted to approximately 1×10^8 CFU/mL for use as an inoculum. Each assay received 10 μL of the inoculum. The drugs were prepared from a stock solution contained in dimethyl sulfoxide (DMSO) and diluted into the culture medium. Final concentrations of the drugs ranged from 50 to 0.05 μg/assay. The tests were run in duplicate and were incubated appropriately with regard to oxygen requirements for 24 to 48 hrs as required. Anaerobic incubation was an atmosphere of 5% CO2, 10% H2, with the balance N2. The lowest concentration of an antimicrobial agent at which no visible growth is noted was referred to as the MIC. […] The method used was the same as described in Example 1.

[3] = system: P. ging 381; test: MIC microdilution, gram negative; format: cell-based, Porphyromonas gingivalis
Protocol: as §2

[4] = system: M. luteus; test: MIC microdilution, gram positive; format: cell-based, Micrococcus luteus; details: Table 2, Gram Positive
Protocol: as §1

[5] = system: Str. pn. R; test: Mean Streptococcus MIC; format: cell-based; details: Table 5, mean; strain resistant to penicillin and erythromycin
Protocol: (§3) The MIC's for the compounds were determined by a modified microdilution tube dilution method described in “Methods for Dilution Antimicrobial Susceptibility Tests for Bacteria that Grow Aerobically” (National Committee for Clinical Laboratory Standards Approved Standards, 1997, NCCLS document M7-A4). In general the modifications were made because of the unique growth requirements for the fastidious oral organisms and for those bacteria that require anaerobic conditions. Reference is also made to “Methods for Antimicrobial Susceptibility of Anaerobic Bacteria” (National Committee for Clinical Laboratory Standards Approved Standards, 1997, NCCLS document M11-A4).
(§4) Briefly, the methods were as follows. Cultures were grown for 18-24hrs (aerobic bacteria) or 48-72 hrs (anaerobic bacteria) in the appropriate medium. For aerobic bacteria full strength brain heart infusion medium (BHI, Difco) was used. For anaerobic bacteria, half strength BHI (18.5 g/L) was supplemented by adding yeast extract (10 g/L), hemin (0.29 mL of a stock solution containing 0.1 g/200 mL dH2O) and menadione (15 mL of a stock solution containing 0.15 mL in 30 mL 95% EtOH) was used. Initial cultures were diluted to approximately 1×10^8 CFU/mL for use as an inoculum. Each assay received 10 μL of the inoculum. The drugs were prepared from a stock solution contained in dimethyl sulfoxide (DMSO) and diluted into the culture medium. Final concentrations of the drugs ranged from 50 to 0.05 μg/assay. The tests were run in duplicate and were incubated appropriately with regard to oxygen requirements for 24 to 48 hrs as required. Anaerobic incubation was an atmosphere of 5% CO2, 10% H2, with the balance N2. The lowest concentration of an antimicrobial agent at which no visible growth is noted was referred to as the MIC.
(§5) This embodiment illustrates the efficacy of the compounds of the present invention against Streptococcus strains. One of the strains, Str.pn.R was obtained from the Children's Hospital in Buffalo (strain 00-041-0614). […] The sensitivity of this strain was tested against several known antibiotics.

[6] = system: Str. pn; test: Mean Streptococcus MIC; format: cell-based; details: Table 5, mean
Protocol: as §3, §4, §5

[7] = system: S. mutans; test: MIC microdilution, gram positive; format: cell-based, Streptococcus mutans; details: Table 1, Gram Positive
Protocol: as §1

[8] = system: Aa Y4; test: MIC microdilution, gram negative; format: cell-based, Actinobacillus actinomycetemcomitans
Protocol: as §2

[9] = system: P. acnes 11828; test: MIC microdilution, gram positive; format: cell-based, Propionibacterium acnes; details: Table 1, Gram Positive
Protocol: as §1

[10] = system: P. acnes 6922; test: MIC microdilution, gram positive; format: cell-based, Propionibacterium acnes; details: Table 1, Gram Positive
Protocol: as §1

[11] = system: Fuso. 25586; test: MIC microdilution, gram negative; format: cell-based, Fusobacterium nucleatum
Protocol: as §2

[12] = system: S. aureus; test: MIC microdilution, gram positive; format: cell-based, Staphlococcus aureus
Protocol: as §3, §4
(§6) This embodiment describes the sensitivity of various staphylococcus strains to the compounds of the present invention. The staphylococcus species R is a strain 00-045-1209 from the Children's Hospital in Buffalo. It was isolated from the peritoneal cavity (fluid culture) of an individual. It was coagulase negative. The sensitivity of this strain was tested agaisnt several known antibiotics.

[13] = system: S.salivarius; test: MIC microdilution, gram positive; format: cell-based, Streptococcus salivarius; details: Table 1, Gram Positive
Protocol: as §1

[14] = system: S. sanguis; test: MIC microdilution, gram positive; format: cell-based, Streptococcus sanguis; details: Table 1, Gram Positive
Protocol: as §1

[15] = system: Lact 7496; test: MIC microdilution, gram positive; format: cell-based, Lactobacillus rhamnosus (casei); details: Table 2, Gram Positive
Protocol: as §1

[16] = system: B. fragilis; test: MIC microdilution, gram negative; format: cell-based, Bacteroides fraglis
Protocol: as §2

[17] = system: S. species R; test: Staphylococcus MIC; format: cell-based, staphylococcus species R; details: second Table 5 (Example 5); strain 00-045-1209
Protocol: as §3, §4, §6

[18] = system: Str.pn.R (strain 00-041-0614); test: Sensitivity of strain to known antibiotics; format: cell-based, Streptococcus; details: sensitive / resistant
Protocol: as §5

[19] = system: staphylococcus species R (strain 00-045-1209); test: Sensitivity of strain to known antibiotics; format: cell-based; details: sensitive / resistant
Protocol: as §6

[20] = Table 3 printed a second time, Gram Negative

- MIC Pg 53977 ([2]; Table 3, Gram Negative): <0.4 micrograms/ml
- MIC Pg 53977 [2, 20]: <0.4 micrograms/ml
- MIC P. ging 381 ([3]; Table 3, Gram Negative): <0.4 micrograms/ml
- MIC P. ging 381 [3, 20]: <0.4 micrograms/ml
- MIC M. luteus [4]: 0.8 micrograms/ml
- Mean Streptococcus MIC values Str. pn. R [5]: 0.78 micrograms/ml
- Mean Streptococcus MIC values Str. pn [6]: 0.84 micrograms/ml
- MIC P. acnes 11828 [9]: 0.4 micrograms/ml
- MIC P. acnes 6922 [10]: 0.4 micrograms/ml
- MIC S.salivarius [13]: 50 micrograms/ml
- MIC S. sanguis [14]: 0.8 micrograms/ml
- MIC Lact 7496 [15]: 1.6 micrograms/ml
- MIC S. species R [17]: 25.0 micrograms/ml
Molecule: O=C(c1ccc(O)c(C(=O)Nc2cccc(C(F)(F)F)c2)c1)c1ccc2ccccc2c1 [NA2mF]
- MIC A. viscosus [1]: NE (NE indicates that the drug was not effective at a concentration >50 micrograms/ml)
- MIC S. mutans [7]: NE (NE indicates that the drug was not effective at a concentration >50 micrograms/ml)
- MIC Aa Y4 ([8]; Table 3, Gram Negative): NE (NE indicates that the drug was not effective at a concentration >50 micrograms/ml)
- MIC Aa Y4 [8, 20]: NE (NE indicates that the drug was not effective at a concentration >50 micrograms/ml)
- MIC Fuso. 25586 ([11]; Table 3, Gram Negative): NE (NE indicates that the drug was not effective at a concentration >50 micrograms/ml)
- MIC Fuso. 25586 [11, 20]: NE (NE indicates that the drug was not effective at a concentration >50 micrograms/ml)
- MIC S. aureus ([12]; Table 2, Gram Positive): NE (NE indicates that the drug was not effective at a concentration >50 micrograms/ml)
- MIC S. aureus ([12]; second Table 5 (Example 5)): NE (NE indicates that the drug was not effective at a concentration >50 micrograms/ml)
- MIC B. fragilis ([16]; Table 3, Gram Negative): NE (NE indicates that the drug was not effective at a concentration >50 micrograms/ml)
- MIC B. fragilis [16, 20]: NE (NE indicates that the drug was not effective at a concentration >50 micrograms/ml)

- MIC A. viscosus [1]: 1.6 micrograms/ml
- MIC Pg 53977 ([2]; Table 3, Gram Negative): 0.4 micrograms/ml
- MIC Pg 53977 [2, 20]: 0.4 micrograms/ml
- MIC P. ging 381 ([3]; Table 3, Gram Negative): 0.4 micrograms/ml
- MIC P. ging 381 [3, 20]: 0.4 micrograms/ml
- MIC M. luteus [4]: 3.1 micrograms/ml
- Mean Streptococcus MIC values Str. pn. R [5]: 3.12 micrograms/ml
- Mean Streptococcus MIC values Str. pn [6]: 0.58 micrograms/ml
- MIC S. mutans [7]: 1.6 micrograms/ml
- MIC Aa Y4 ([8]; Table 3, Gram Negative): 6.3 micrograms/ml
- MIC Aa Y4 [8, 20]: 6.3 micrograms/ml
- MIC P. acnes 11828 [9]: 6.3 micrograms/ml
- MIC P. acnes 6922 [10]: 6.3 micrograms/ml
- MIC Fuso. 25586 ([11]; Table 3, Gram Negative): 12.5 micrograms/ml
- MIC Fuso. 25586 [11, 20]: 12.5 micrograms/ml
- MIC S. aureus ([12]; Table 2, Gram Positive): 6.3 micrograms/ml
- MIC S. aureus ([12]; second Table 5 (Example 5)): 6.3 micrograms/ml
- MIC S.salivarius [13]: 50 micrograms/ml
- MIC S. sanguis [14]: 6.3 micrograms/ml
- MIC Lact 7496 [15]: 6.3 micrograms/ml
- MIC B. fragilis ([16]; Table 3, Gram Negative): 3.1 micrograms/ml
- MIC B. fragilis [16, 20]: 3.1 micrograms/ml
- MIC S. species R [17]: 12.5 micrograms/ml
Molecule: N#Cc1ccc(NC(=O)c2cc(C(=O)c3ccc4ccccc4c3)ccc2O)cc1 [NA2pC]

Molecule: CO[C@H]1/C=C/O[C@@]2(C)Oc3c(C)c(O)c4c(O)c(c(/C=N/N5CCN(C)CC5)c(O)c4c3C2=O)NC(=O)/C(C)=C\C=C\[C@H](C)[C@H](O)[C@@H](C)[C@@H](O)[C@@H](C)[C@H](OC(C)=O)[C@@H]1C [Rifampin]
- sensitivity of strain Str.pn.R to known antibiotics [18]: sensitive

Molecule: N[C@@H]1[C@H]2CN(c3nc4c(cc3F)c(=O)c(C(=O)O)cn4-c3ccc(F)cc3F)C[C@@H]12 [Trovoflox]
- sensitivity of strain Str.pn.R to known antibiotics [18]: sensitive

Molecule: CN[C@H](CC(C)C)C(=O)N[C@H]1C(=O)N[C@@H](CC(N)=O)C(=O)N[C@H]2C(=O)N[C@H]3C(=O)N[C@H](C(=O)N[C@H](C(=O)O)c4cc(O)cc(O)c4-c4cc3ccc4O)[C@H](O)c3ccc(c(Cl)c3)Oc3cc2cc(c3O[C@@H]2O[C@H](CO)[C@@H](O)[C@H](O)[C@H]2O[C@H]2C[C@](C)(N)[C@H](O)[C@H](C)O2)Oc2ccc(cc2Cl)[C@H]1O [Vancomycin]
- sensitivity of strain Str.pn.R to known antibiotics [18]: sensitive
- sensitivity of staphylococcus species R to known antibiotics [19]: sensitive

Molecule: CC1(C)S[C@@H]2[C@H](NC(=O)[C@H](N)c3ccc(O)cc3)C(=O)N2[C@H]1C(=O)O [amoxicillin]
- sensitivity of staphylococcus species R to known antibiotics [19]: resistant

Molecule: CC[C@H]1OC(=O)[C@H](C)[C@@H](O[C@H]2C[C@@](C)(OC)[C@@H](O)[C@H](C)O2)[C@H](C)[C@@H](O[C@@H]2O[C@H](C)C[C@H](N(C)C)[C@H]2O)[C@](C)(O)C[C@@H](C)CN(C)[C@H](C)[C@@H](O)[C@]1(C)O [azithromycin]
- sensitivity of staphylococcus species R to known antibiotics [19]: resistant

Molecule: CO/N=C(\C(=O)N[C@@H]1C(=O)N2C(C(=O)O)=C(COC(C)=O)CS[C@H]12)c1csc(N)n1 [cefotaxime]
- sensitivity of staphylococcus species R to known antibiotics [19]: resistant

Molecule: Cc1onc(-c2ccccc2)c1C(=O)N[C@@H]1C(=O)N2[C@@H]1SC(C)(C)[C@@H]2C(=O)O [oxacillin]
- sensitivity of staphylococcus species R to known antibiotics [19]: resistant

Molecule: penicillin
- sensitivity of strain Str.pn.R to known antibiotics [18]: resistant
